Laboratory results taken from patent US20250215011A1, “T-TYPE CALCIUM CHANNEL MODULATORS COMPRISING A DIAZASPIROHEPTANE CORE AND METHODS OF USE THEREOF” (Praxis Precision Medicines, Inc., priority 2022, published 2025).

biological target: Human Cav3.1 (Homo sapiens (Human), UniProt O43497); experiment: Cav3.1 automated patch clamp assay (SyncroPatch 384PE), HEK-293 natClytin/TASK1+Cav3.1 cell line; format: cell-based; settings: Table 1, HEK-293 natClytin/TASK1+Cav3.1 cells
Experimental: Inhibition of the T-type voltage gated calcium channel (Cav3.1) was evaluated using a HEK-293 natClytin/TASK1+Cav3.1 cell line. Currents were recorded using the SyncroPatch 384PE automated, patch clamp system. Pulse generation and data collection were performed with PatchController384 V1.3.0 and DataController384 V1.2.1 (Nanion Technologies). Off-line analysis was performed using Excel and Graphpad Prism (V 8.4.2) with complete data files uploaded to Dotmatics. The access resistance and apparent membrane capacitance were estimated using built-in protocols. Current was recorded in whole cell configuration from a population of cells. The cells were lifted, triturated, and resuspended at 800,000 cells/ml. The cells were allowed to recover in the cell hotel prior to experimentation. Currents were recorded at room temperature. The external solution contained the following (in mM): NaCl 80, NMDG 60, KCl 4, MgCl2 1, CaCl2 6, glucose 5 and HEPES 10 (pH=7.4, Osmolarity ˜300 mOsm). The extracellular solution was used as the wash, reference and compound delivery solution. The internal solution contained the following (in mM): CsF 110, CsCl 10, NaCl 10, EGTA 10, HEPES 10 (pH=7.2, Osmolarity ˜295 mOsm). The compound plate was created at 2× concentrated in the extracellular solution. The compound was diluted to 1:2 when added to the recording well. The amount of […] in the extracellular solution was held constant at the level used for the highest tested concentration. For the voltage clamp experiments on Cav3.1, data were sampled at 10 KHz. After establishment of the seal and the passage in the whole cell configuration, the cells were held at −120 mV. Cav3.1 current was evoked using a 100 ms step to −20 mV (to measure resting state block), followed by a 1600 ms step to −65 mV and a second 100 ms step to −20 mV (to measure voltage dependent block). The voltage protocol was applied every 15 seconds in the absence and in the presence of the compounds under investigation. […] Current amplitude (pA) was measured in the peak 1 and 2. The average of last 3 sweeps of each liquid period (vehicle, compound under investigation, full block) was calculated. Nickel-sensitive current was used to calculate the % of inhibition in the presence of the compound under investigation.

Sequence of Human Cav3.1 (O43497 whole entry): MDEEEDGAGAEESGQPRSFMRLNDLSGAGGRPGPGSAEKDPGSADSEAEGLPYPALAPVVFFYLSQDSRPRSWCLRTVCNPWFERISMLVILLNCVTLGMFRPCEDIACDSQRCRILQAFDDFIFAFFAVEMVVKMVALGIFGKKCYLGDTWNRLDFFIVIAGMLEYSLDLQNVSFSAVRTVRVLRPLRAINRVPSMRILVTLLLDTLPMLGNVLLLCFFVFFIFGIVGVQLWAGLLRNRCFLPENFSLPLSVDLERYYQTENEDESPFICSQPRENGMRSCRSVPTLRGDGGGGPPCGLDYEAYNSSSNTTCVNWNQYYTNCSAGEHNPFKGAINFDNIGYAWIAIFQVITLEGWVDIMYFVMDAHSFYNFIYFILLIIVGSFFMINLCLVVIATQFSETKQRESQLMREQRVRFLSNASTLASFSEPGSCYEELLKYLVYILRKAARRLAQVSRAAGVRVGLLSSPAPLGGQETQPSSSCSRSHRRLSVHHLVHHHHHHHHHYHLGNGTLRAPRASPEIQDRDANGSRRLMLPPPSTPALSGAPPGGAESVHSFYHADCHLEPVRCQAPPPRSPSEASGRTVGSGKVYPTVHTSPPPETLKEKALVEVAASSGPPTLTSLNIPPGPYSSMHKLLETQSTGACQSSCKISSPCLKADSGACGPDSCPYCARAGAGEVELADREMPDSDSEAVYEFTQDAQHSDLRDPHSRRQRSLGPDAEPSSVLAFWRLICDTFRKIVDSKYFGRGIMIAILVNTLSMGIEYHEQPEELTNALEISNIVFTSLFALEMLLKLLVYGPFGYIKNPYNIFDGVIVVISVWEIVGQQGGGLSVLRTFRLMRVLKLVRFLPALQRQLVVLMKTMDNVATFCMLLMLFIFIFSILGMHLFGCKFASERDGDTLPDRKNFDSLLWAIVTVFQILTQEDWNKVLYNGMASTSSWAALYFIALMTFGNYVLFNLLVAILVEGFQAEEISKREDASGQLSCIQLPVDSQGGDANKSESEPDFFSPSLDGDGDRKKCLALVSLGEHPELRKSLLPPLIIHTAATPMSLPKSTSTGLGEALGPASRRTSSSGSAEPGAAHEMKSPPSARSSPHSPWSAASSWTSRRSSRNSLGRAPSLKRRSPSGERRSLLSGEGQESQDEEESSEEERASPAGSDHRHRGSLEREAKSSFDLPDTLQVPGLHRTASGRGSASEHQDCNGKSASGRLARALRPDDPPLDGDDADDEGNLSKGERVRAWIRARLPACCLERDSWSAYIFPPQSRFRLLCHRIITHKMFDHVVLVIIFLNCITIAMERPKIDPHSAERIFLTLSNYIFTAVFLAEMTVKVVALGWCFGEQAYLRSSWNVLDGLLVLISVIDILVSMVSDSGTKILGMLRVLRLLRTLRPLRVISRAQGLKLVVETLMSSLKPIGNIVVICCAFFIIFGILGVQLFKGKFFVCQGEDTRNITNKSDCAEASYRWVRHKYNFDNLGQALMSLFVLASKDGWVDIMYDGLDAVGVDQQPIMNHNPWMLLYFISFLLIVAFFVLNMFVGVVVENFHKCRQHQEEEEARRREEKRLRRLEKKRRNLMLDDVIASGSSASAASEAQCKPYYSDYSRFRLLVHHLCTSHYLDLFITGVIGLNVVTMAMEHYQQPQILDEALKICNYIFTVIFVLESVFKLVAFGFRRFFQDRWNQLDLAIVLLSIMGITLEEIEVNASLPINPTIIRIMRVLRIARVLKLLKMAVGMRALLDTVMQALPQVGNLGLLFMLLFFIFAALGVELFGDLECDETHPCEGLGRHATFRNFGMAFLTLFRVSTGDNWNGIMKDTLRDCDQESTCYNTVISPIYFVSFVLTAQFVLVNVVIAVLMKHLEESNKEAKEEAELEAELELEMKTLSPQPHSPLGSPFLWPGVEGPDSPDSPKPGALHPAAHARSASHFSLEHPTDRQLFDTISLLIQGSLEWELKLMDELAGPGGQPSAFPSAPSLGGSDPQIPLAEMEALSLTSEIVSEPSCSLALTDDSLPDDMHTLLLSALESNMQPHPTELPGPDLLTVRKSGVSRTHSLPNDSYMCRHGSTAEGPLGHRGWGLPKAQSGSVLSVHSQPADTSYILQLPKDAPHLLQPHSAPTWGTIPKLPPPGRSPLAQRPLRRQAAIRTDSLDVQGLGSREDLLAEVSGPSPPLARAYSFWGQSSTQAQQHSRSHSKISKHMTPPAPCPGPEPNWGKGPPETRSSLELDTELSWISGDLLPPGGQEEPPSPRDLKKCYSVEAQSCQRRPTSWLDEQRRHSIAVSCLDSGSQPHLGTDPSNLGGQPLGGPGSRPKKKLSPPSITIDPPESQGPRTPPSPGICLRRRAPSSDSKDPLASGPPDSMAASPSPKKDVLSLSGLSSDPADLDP

IC50 | SMILES
≥ 10000 nM | Cc1cc(NC(=O)CN2CC3(C2)CN(CC(=O)NC(C)(C)C)C3)nn1-c1ccccc1 [Example 7]
1000 to 10000 nM | CC(C)(C)NC(=O)CN1CC2(CN(CC(=O)Nc3cccc(Cl)c3)C2)C1 [Example 6]
1000 to 10000 nM | CC(C)(C)NC(=O)CN1CC2(CN(CC(=O)Nc3ccc(F)c(Cl)c3)C2)C1 [Example 5]
1000 to 10000 nM | CC(C)(C)NC(=O)CN1CC2(CN(CC(=O)Nc3cc(F)cc(C(F)F)c3)C2)C1 [Example 3]
1000 to 10000 nM | Cc1cc(F)cc(NC(=O)CN2CC3(C2)CN(CC(=O)NC(C)(C)C)C3)c1 [Example 4]
≥ 10000 nM | CC(C)(C)NC(=O)CN1CC2(CN(CC(=O)Nc3cccc(Cl)c3F)C2)C1 [Example 8]
1000 to 10000 nM | COc1cc(F)cc(NC(=O)CN2CC3(C2)CN(CC(=O)NC(C)(C)C)C3)c1 [Example 2]

SMILES | IC50
CC(C)(C)NC(=O)CN1CC2(CN(CC(=O)Nc3cc(Cl)cc(Cl)c3)C2)C1 [Example 1, N-(tert-butyl)-2-(6-(2-((3,5-dichlorophenyl)amino)-2-oxoethyl)-2,6-diazaspiro[3.3]heptan-2-yl)acetamide] | < 1000 nM

same assay, conditions: Table 2, HEK-293 natClytin/TASK1+Cav3.1 cells

SMILES | IC50
O=C(CN1CC2(C1)CN(CC(=O)NC1CCCC1)C2)Nc1cc(F)cc(Cl)c1 [Example 16] | 1000 to 10000 nM
COc1cccc(CN2CC3(CN(CC(=O)Nc4cc(F)cc(Cl)c4)C3)C2)c1 [Example 24] | 1000 to 10000 nM
CC(C)(C)c1ncc(CN2CC3(CN(CC(=O)Nc4cc(F)cc(Cl)c4)C3)C2)[nH]1 [Example 29] | 1000 to 10000 nM
Cc1nc(CN2CC3(CN(CC(=O)Nc4cc(F)cc(Cl)c4)C3)C2)co1 [Example 22] | 1000 to 10000 nM
Cc1cccc2[nH]c(CN3CC4(CN(CC(=O)NC(C)(C)C)C4)C3)nc12 [Example 37] | 1000 to 10000 nM
CC(C)(NC(=O)CN1CC2(CN(CC(=O)Nc3cc(F)cc(Cl)c3)C2)C1)C(F)(F)F [Example 17] | 1000 to 10000 nM
O=C(CN1CC2(C1)CN(Cc1nc(-c3ccccc3)co1)C2)Nc1cc(F)cc(Cl)c1 [Example 28] | 1000 to 10000 nM
CCC(C)(C)NC(=O)CN1CC2(CN(CC(=O)Nc3cc(F)cc(Cl)c3)C2)C1 [Example 10, N-(3-chloro-5-fluoro-phenyl)-2-[2-[2-(1,1-dimethylpropylamino)-2-oxo-ethyl]-2,6-diazaspiro[3.3]heptan-6-yl]acetamide] | < 1000 nM
CC(C)(C)NC(=O)CN1CC2(CN(CC(=O)Nc3cc(F)cc(OC(F)F)c3)C2)C1 [Example 41] | 1000 to 10000 nM
O=C(CN1CC2(C1)CN(Cc1cnc(-c3ccccc3)[nH]1)C2)Nc1cc(F)cc(Cl)c1 [Example 23] | < 1000 nM
CC(C)(C)NC(=O)CN1CC2(C1)CN(CC(=O)NC13CC4CC(CC(C4)C1)C3)C2 [Example 12] | 1000 to 10000 nM
CC(C)(C)c1nc(CN2CC3(CN(CC(=O)Nc4cc(F)cc(Cl)c4)C3)C2)co1 [Example 13] | < 1000 nM
CC(C)(C)NC(=O)CN1CC2(C1)CN(Cc1nc3c(F)cc(OC(F)F)cc3[nH]1)C2 [Example 40] | 1000 to 10000 nM
CC1(NC(=O)CN2CC3(CN(CC(=O)Nc4cc(F)cc(Cl)c4)C3)C2)CCC1 [Example 14] | < 1000 nM
CC(C)(C)NC(=O)CN1CC2(C1)CN(Cc1nc3c(Cl)cc(Cl)cc3[nH]1)C2 [Example 39] | < 1000 nM
Cc1cc(F)cc2[nH]c(CN3CC4(CN(CC(=O)NC(C)(C)C)C4)C3)nc12 [Example 38] | 1000 to 10000 nM
CC(C)(C)NC(=O)CN1CC2(C1)CN(Cc1nc3cc(F)cc(Cl)c3[nH]1)C2 [Example 9, N-(tert-butyl)-2-(6-((7-chloro-5-fluoro-1H-benzo[d]imidazol-2-yl)methyl)-2,6-diazaspiro[3.3]heptan-2-yl)acetamide] | < 1000 nM
O=C(CN1CC2(CN(CCC3CCCC3)C2)C1)Nc1cc(F)cc(Cl)c1 [Example 20] | < 1000 nM
Cc1coc(CN2CC3(CN(CC(=O)Nc4cc(F)cc(Cl)c4)C3)C2)n1 [Example 30] | 1000 to 10000 nM
CCC(C)(C)NC(=O)CN1CC2(C1)CN(Cc1nc3c(Cl)cc(F)cc3[nH]1)C2 [Example 32] | < 1000 nM
CC(C)(C)c1coc(CN2CC3(CN(CC(=O)Nc4cc(F)cc(Cl)c4)C3)C2)n1 [Example 19] | 1000 to 10000 nM

More lines, now with the values ahead:

IC50 | SMILES
< 1000 nM | O=C(CN1CC2(CN(CCC3CCC(F)(F)CC3)C2)C1)Nc1cc(F)cc(Cl)c1 [Example 26]
< 1000 nM | O=C(CN1CC2(C1)CN(Cc1coc(-c3ccccc3)n1)C2)Nc1cc(F)cc(Cl)c1 [Example 15]
< 1000 nM | Fc1cc(Cl)c2nc(CN3CC4(CN(CCC5CCCC5)C4)C3)[nH]c2c1 [Example 34]
< 1000 nM | O=C(CN1CC2(C1)CN(Cc1nc3ccccc3[nH]1)C2)Nc1cc(F)cc(Cl)c1 [Example 18]
< 1000 nM | O=C(CN1CC2(C1)CN(Cc1cccc(C(F)F)c1)C2)Nc1cc(F)cc(Cl)c1 [Example 27]
< 1000 nM | CC(C)(C)CCN1CC2(C1)CN(Cc1nc3c(Cl)cc(F)cc3[nH]1)C2 [Example 33]
< 1000 nM | Fc1cc(Cl)c2nc(CN3CC4(C3)CN(CC3CCC(F)(F)CC3)C4)[nH]c2c1 [Example 36]
< 1000 nM | CC(C)(NC(=O)CN1CC2(C1)CN(Cc1nc3c(Cl)cc(F)cc3[nH]1)C2)C(F)(F)F [Example 31]
< 1000 nM | CC(C)(C)CCCN1CC2(C1)CN(Cc1nc3c(Cl)cc(F)cc3[nH]1)C2 [Example 35]
< 1000 nM | CC(C)(C)NC(=O)CN1CC2(CN(CC(=O)Nc3cc(F)cc(Cl)c3)C2)C1 [Example 11]
< 1000 nM | O=C(CN1CC2(C1)CN(Cc1cccc(Cl)c1)C2)Nc1cc(F)cc(Cl)c1 [Example 25]
< 1000 nM | CC(C)(C)NC(=O)CN1CC2(C1)CN(C(=O)Nc1cc(F)cc(Cl)c1)C2 [Example 43]
< 1000 nM | CC(C)(C)CCN1CC2(C1)CN(CC(=O)Nc1cc(F)cc(Cl)c1)C2 [Example 21]
